The results in this text go back to a melting point compilation (Tetko et al.; mined from patent text by program, amines drawn as free bases though some values may be those of a salt).

Each structure is given as a SMILES string.

As a reminder, the melting point is the temperature of the solid-liquid transition. With `O=C(O)c1ccc(CCCC2SCC(=O)N2CCCC2(O)CCCCC2)cc1` (stereo unspecified), the melting point lay within 118 to 121 °C.
For the compound `CC1CCCN(S(=O)(=O)c2ccc(OC(C)C)c(C(=O)O)c2)C1` (stereo unspecified), the melting point fell in the range of 102 to 104 °C.
`CC(C)n1nc(-c2c(-c3ccccc3)nn3ccc(N4CCN(c5ccccn5)CC4)cc23)ccc1=O`: the melting point is 221 to 222 °C.
Next, `O=C1c2ccccc2-c2c1c1ccccc1c(=O)n2CCCCCCNS(=O)(=O)c1ccccc1`: 150 to 152 °C.
`COc1ccc(CNC(=O)[C@@H](NC(=O)[C@H](NCc2cccc3ccccc23)[C@H](O)[C@H](Cc2ccccc2)NC(=O)OC(C)(C)C)C(C)C)c(O)c1` yielded a melting point of 95 to 98 °C.
Next, `CCN1OCC(=O)N(c2cc(Cl)ccc2C)C1=S`: 119 to 121 °C.
As to `CC1(CCl)Oc2ccc([N+](=O)[O-])cc2O1` (stereo unspecified), the melting point lay in the range of 72 to 73 °C.
`CSc1cccc(S(N)(=O)=O)c1` displayed a melting point of 126 to 127 °C.
In the case of `CCOC(=O)Nc1ncc(-c2nc3ccccc3c(=O)n2-c2ccc(OC)cc2)s1`, the melting point is 222 to 224 °C.
`COc1cc(C2c3cc4c(cc3C(O)CC2C(=O)O)OCO4)cc(OC)c1OC` (stereo unspecified) showed a melting point of 181 to 182 °C.
`Cc1c(-c2ccc(Cl)cc2)c2cc(OC(C)(C)C(=O)O)ccc2n1C` showed a melting point of 148 to 149 °C.
`CCOC(=O)c1coc(-c2ccc(Cn3cnc4ccccc43)cc2)n1` registered a melting point of 150 to 152 °C.
Next, `c1ccc(CNn2cccc2)cc1`: 39 to 41 °C.
In the case of `N=c1[nH]c2ccncc2c2nc(-c3ccco3)nn12`, the melting point lay in the range of 320 to 321 °C.
On to `COC(=O)COc1ccc2cc(-c3cnc(-c4cn(C)c5ccccc45)o3)ccc2c1`, for which the melting point lay within 187 to 189 °C.
`C[C@@H]1C(=O)C=CN2c3ccccc3CC[C@@H]12` (relative stereo) came in with a melting point of 148 to 150 °C.
`CC(C(=O)O)c1ccc2c(-c3ccc(F)cc3)noc2c1` (stereo unspecified) yielded a melting point of 151 to 154 °C.
Under `CCOC(=O)c1ccc(-c2c(Cl)c(CN3C(=O)CCC3=O)nc3sc4c(c23)CCN(C(=O)OCc2ccccc2)C4)cc1` stands 198 to 199 °C.
As for `CCCCCCCNC(=O)Nc1ccc(NC(C)=O)cc1C(=O)NC1CCN(C(c2ccccc2)c2ccccc2)CC1`, the melting point lay in the range of 113 to 115 °C.
With `COc1ccc2c(c1)C(N1C(=O)c3ccccc3C1=O)C(=O)N2c1ccc(F)cc1` (stereo unspecified), the melting point lay within 208 to 210 °C.
Next, `CC1c2ccccc2-c2ccccc2N1S(=O)(=O)c1ccc(O)c(O)c1` (stereo unspecified): 163 to 165 °C; `NC(=O)c1cn(C(CO)CCc2cccc(C(F)(F)F)c2)cn1` (stereo unspecified): 103 to 106 °C; `CC(C)CN1C(=O)c2cnc(-c3ccccc3)nc2Nc2ccccc21`: 203 to 204 °C.
Compound `CCOC(=O)c1c(S(=O)(=O)O)nc(-c2ccccc2)c([N+](=O)[O-])c1C(=O)OCC` displayed a melting point of 187 to 190 °C.
Next, `O=C(O)C1CCc2onc(-c3ccc(Cl)cc3)c2C1` (stereo unspecified): 203 to 205 °C; `Nc1nc(/C(=N/OC2(C(=O)OCc3ccc([N+](=O)[O-])cc3)CCCCC2)C(=O)O)cs1`: 184 to 185 °C.
With `Cc1nnc2c(-c3ccccn3)cccn12`, the melting point lay within 142 to 143 °C.
On to `COc1ccc(N2CCN(c3c(C)c(C)c4c(c3C3CC3)CC(C)(C)O4)CC2)cc1`, for which the melting point lay in the range of 121 to 122 °C.
`Fc1ccc(NC(=S)NN(c2ccccc2)c2ccccc2)cc1` gave a melting point of 200 °C.
`CCNCC1CCN(c2c(F)cc3c(=O)c(C(=O)O)cn4c3c2OCC4CC)C1` (stereo unspecified) gave a melting point of 221 to 224 °C.
As for `CCOC(=O)c1ccc(NC(=O)c2ccc(OC)c(OC)c2)c2ccccc12`, the melting point lay within 144 to 146 °C.
`CSC(=S)NN=Cc1nc(-c2ccccc2)[nH]c1C`: the melting point was in the range of 180 to 185 °C.
For the compound `N#Cc1cnc2c(Br)cccc2c1O`, the melting point is more than 260 °C.
For the compound `COC(=O)c1cc(C)c(OCCNC(=O)C2Cc3ccccc3N2S(=O)(=O)c2ccc(-c3ccc(F)cc3)cc2)c(C)c1` (stereo unspecified), the melting point was found to be 91 °C.
`CC(=O)c1cc(Cl)ccc1Nc1ccc(OCc2ccccc2)cc1` showed a melting point of 74 to 75 °C.
With `COc1cc(C)c(CCCCCCCCCC(=O)CCCCCC(=O)O)c(O)c1OC`, the melting point was 55 to 57 °C.
Next, `CN1CCC(=C2c3ccccc3COc3ccc(Br)cc32)CC1`: 131 to 132 °C; `O=C(CN(C(=O)OCc1ccccc1)c1ccc(Cl)cc1)NCCc1ccc(OCc2ccccc2)c(OCc2ccccc2)c1`: 114 to 116 °C; `Nc1nc2cccnc2c2c1nc(O)n2CC1CCOCC1`: 250 to 260 °C.
`O=C1Nc2cccc(NC(=O)c3cccn(-c4ccc(F)cc4)c3=O)c2/C1=C/c1ccc[nH]1` returned a melting point of more than 300 °C.
Under `CCc1nc(CO)n(CC)c1Sc1cc(C#N)cc(C#N)c1` stands 141 to 143 °C.
Next, `COc1cc(Nc2nc3cccc(-c4cccc(CN)c4)c3o2)cc(OC)c1OC`: 145 to 150 °C; `COc1cccc(Cc2ccc(-c3c[nH]nc3N)cc2)c1`: 118 to 120 °C; `O=C(O)c1cn(C2CC2)c2c(F)c(N3CC(n4ccnn4)C3)c(F)cc2c1=O`: 315 to 316 °C.
As to `O=C(O)c1ccccc1CCc1n[nH]c2c1c(=O)n(-c1ccccc1)c1ncccc21`, the melting point lay within 302 to 308 °C.
Under `CC(=O)c1cccc2c1Oc1c(C(C)=O)cccc1N2[Si](C)(C)C(C)(C)C` stands 146 °C; under `N#CCNC(=O)c1cccc2ccccc12`, 160 to 163 °C; under `O=c1[nH]c(=O)n(Cc2cccc(OCc3csc(-c4ccccc4)n3)c2)o1`, 139 to 140 °C.
Take `CC1=C(C(=O)OC(C)(C)C)C(c2ccccc2Cl)c2c[nH]nc2N1` (stereo unspecified): the melting point came out at 207 °C.
In the case of `O=C1N[C@H](CCl)[C@@H]1N1C(=O)c2ccccc2C1=O` (relative stereo), the melting point worked out at 172 °C.
`CC1(C)C(=O)N(c2ccc(C#N)c(C(F)(F)F)c2)C(=O)N1CC=CCN1C(=O)N(c2ccc(C#N)c(C(F)(F)F)c2)C(=O)C1(C)C` registered a melting point of 188 to 190 °C.
For `CCCCCCCNC(=O)Nc1ccccc1C(=O)NC1CCN(Cc2c(C(C)C)nc(C(C)C)c(COC)c2-c2ccc(F)cc2)CC1`, the melting point stood at 123 °C.
Under `CCOC(=O)CNc1ncccc1NC(=O)c1cccc(F)c1` stands 134 to 135 °C.
Next, `CN=C(SC)N(C)Cc1cc(C)nc(C)c1`: 131 to 133 °C.
`CC1NC(=O)NN=C1c1ccc(N2CCCC2=O)cc1` (stereo unspecified): the melting point is 278 to 280 °C.
Turning to `CSc1ccc2c(c1)Cc1ccc(C=O)cc1O2`, the melting point lay within 122 to 123 °C.
Under `CCOC(=O)c1cnc2cc(OC)ccc2c1O` stands more than 260 °C.
In the case of `CCCC1=C([N+](=O)[O-])C(c2cccc3c2OCCC3)c2c[nH]nc2N1` (stereo unspecified), the melting point was determined as 234 °C.
On to `C=CCO[C@H]1[C@@H](OCc2ccccc2)[C@@H](OCc2ccccc2)[C@H](OCc2ccccc2)[C@@H](OCc2ccccc2)[C@@]1(CCC)OC(=O)CCC` (racemic), for which the melting point was 115 °C.
Consider `CCOP(=O)(Cc1cc(C(C)(C)C)c(O)c(C(C)(C)C)c1)OCC`, for which the melting point stood at 114 °C.
As to `CS(=O)(=O)N1CCS(=O)c2cccc(Cl)c2C1` (stereo unspecified), the melting point was 167 to 169 °C.
Next, `Nc1n[nH]c2c1c1cc(Cl)c(Cl)cc1n2C1OC(CO)C(O)C1O` (stereo unspecified): 198 to 201 °C.
`Cc1cc(C#N)cn2cc(-c3cccc(Br)c3)nc12`: the melting point lay in the range of 168 to 170 °C.
Compound `CC1=NS(=O)(=O)N(C)C(Oc2cccnc2)=N1` came in with a melting point of 137 to 138 °C.
Next, `CCOC(=O)c1ccc2c(c1)C(=O)CC(c1ccccc1)=N2`: more than 300 °C.
As to `CCOC(=O)c1ncn2c1CN(C)C(=O)c1sccc1-2`, the melting point lay in the range of 160 to 162 °C.
In turn, `COc1ccc(-c2ccc(C(=O)Nc3ccc4cc(CN5CCCC5)cnc4c3C)cc2)cc1` registered a melting point of 190 to 192 °C.
`CC(=O)NCC1CC1c1cccc2nc(C)cn12` (stereo unspecified) gave a melting point of 170 to 171 °C.
Compound `O=[N+]([O-])c1ccccc1NCc1cc(F)cc(F)c1` came in with a melting point of 104 to 105 °C.
Compound `COc1ccc(OC)c2c1CCC(O)C2` (stereo unspecified) came in with a melting point of 128 to 129 °C.
In turn, `COc1cc(-c2nc3ccc(O)cc3n2Cc2ccccc2C(F)(F)F)cc(OC)c1OC` registered a melting point of 191 °C.
Compound `COc1ccc(C(=O)NCCCCCNC(=O)c2ccc(OC)cc2)cc1` yielded a melting point of 160 to 161 °C.
Turning to `NNC(=S)Cc1ccc(F)cc1`, the melting point was 150 to 152 °C.
On to `COc1ccccc1CNc1ccc2cc(Nc3nc4cc(C)ccc4o3)ccc2n1`, for which the melting point was determined as 220 °C.
Compound `COc1ccc(COC(=O)C2N=CSCC2(C)O)cc1` (stereo unspecified) yielded a melting point of 102 to 103 °C.
`O=C(C=Cc1cccc(Cl)c1Cl)c1ccc(OC2CCCCO2)cc1` (stereo unspecified) showed a melting point of 116 to 118 °C.
The compound `NC1=NS(=O)N=C1NCCCN(Cc1ccncc1)c1ccccn1` (stereo unspecified) displayed a melting point of 103 to 110 °C.
Turning to `CCOC(=O)c1c(C)cc2c(=O)n(-c3cccc(Cl)c3)c(C)nc2c1C`, the melting point was in the range of 150 to 152 °C.
Next, `COc1ccc(Br)cc1OCc1ccccc1`: 70 to 71 °C; `CC(C)(C)OC(=O)NC1Cc2ccccc2CC1=O` (single isomer, unassigned; (+)): 76 °C.
`COc1ccc(-c2nc(CNC(C)=O)sc2-c2ccc(OC)cc2)cc1`: the melting point is 138 to 141 °C.
Turning to `COc1ccc(S(=O)(=O)Nc2cccnc2Nc2ccc(OC)c(OC)c2)cc1`, the melting point was 126 to 127 °C.
Turning to `O=C(O)CN(Cc1ccccc1)C(=O)CCc1nc2c(F)c(F)cc(F)c2s1`, the melting point fell in the range of 144 to 146 °C.
On to `CC(C)(C)OC(=O)c1ncn2c1cc(N1CCN(C(=O)OC(C)(C)C)CC1)c1cc(Cl)ccc12`, for which the melting point lay in the range of 246 to 247 °C.
For the compound `Cc1noc(NS(=O)(=O)c2ccccc2-c2ccccc2)c1Cl`, the melting point was 132 to 134 °C.
Under `CSC1NC(=O)N(c2ccc(Cl)cc2)C(=O)N1N=C(C)C` (stereo unspecified) stands 142 to 144 °C.
